Data set [1] has as its system HCT116. Put plainly: COMET assay, DNA damage by tail length. In kind it is cell-based, human. To be noted: 20 μM, 48 h. Here is the method: (§1) Cells were treated with/without GANT61 (20 μM), SRI-38832 (20 μM) or 5-FU (20 μM) for 48 h, subsequently trypsinized and washed in PBS before being added to preheated (37°C), low-melting point agarose. The solution was pipetted onto slides pre-coated with 1% agarose. The chilled slides were allowed to lyse for 40 min at 4°C in 2.5 M NaCl,100 mM EDTA (pH 10), 10 mM Tris Base, 1% SDS, 1% Triton X−100 prior to immersion in alkaline electrophoresis solution (300 mM NaOH, 1 mM EDTA, pH 13). After 30 min, slides were placed into a horizontal electrophoresis chamber for ~30 min (1 V/cm at 4°C). The slides were washed with deionized H2O to remove the alkaline buffer, dehydrated in 70% ice–cold EtOH and air-dried overnight. Slides were stained with SYBR-Green and examined by microscopy. Tail length (TL) was used to quantify the DNA damage. Image analysis and quantification has been performed with ImageJ.

For data set [2], the system named is HT29. Put plainly: COMET assay, DNA damage by tail length. In kind it is cell-based, human. To be noted: 20 μM, 48 h. Here is the method:
as §1

For data set [3], the system named is HT29. Put plainly: Annexin V/PI flow cytometry, cell death/apoptosis. It counts as cell-based. Here is the method:
(§2) Cells were treated, in duplicate, as described in the figure legends. At the end of treatment, cells were collected by trypsinization and incubated with Annexin V FITC (BD Biosciences) and PI (Sigma) prior to analysis using a FACS Calibur flow cytometer. Data was analyzed using FlowJo software.

For data set [4], the system named is HCT8. Put plainly: CellTiter-Glo Luminescent Cell Viability (cell proliferation) assay. In kind it is cell-based, human. To be noted: for IC50: Homo sapiens, HCT-8, Figure 5B-D, HCT8 (low GLI1 expression), unit inferred, x-axis in μM. How it is done: (§3) Confluent monolayers of cells were trypsinized, and 10,000 cells suspended in 200 μl of medium were added to each well of the 96-well plate. […] The proliferation of the cells was determined using the CellTiter-Glo Luminescent Cell Viability Assay kit (Promega).
For orientation: In ATP-based viability assays light output follows the ATP content of the culture.

For data set [5], the system named is HT29. The description is as above. In kind it is cell-based, human. How it is done:
as §3

Data set [6] concerns NBS1. Put plainly: Western blot analysis of MRN components and damage/apoptosis markers in HT29 cells. In kind it is cell-based, human. To be noted: HT29, 20 μM, 72 h. How it is done:
Cells were seeded in six-well plates and cultured until 70–80% confluent in 10% FBS-supplemented RPMI medium with L-glutamine and maintained at 37°C with 5% CO2. The cells were then treated with/without GANT61, SRI-38832, or 5-FU as indicated in the figure legends, and protein isolates were analyzed by Western blot. Briefly, 15 μg of protein was loaded and separated on a SDS-PAGE gel. Proteins were transferred to polyvinylidene difluoride (PVDF) membranes overnight. Membranes were washed in TBS-T, blotted in primary antibody overnight at 4°C, and subsequently washed and blotted with HRP-linked secondary antibody for 1 h. Membranes were developed and images were taken on an ImageQuant LAS 4000.

In data set [7] the test system is CRC. To be noted: 5-FU and its combinational treatment (FOLFOX), in the clinic; cited from earlier work.
Data set [8] has as its system HCT116. Put plainly: Annexin V/PI flow cytometry, cell death. It counts as cell-based, human. Particulars: 10 and 20 μM, 72 h; low GLI1 and NBS1. Here is the method:
as §2
On the technique in general: A flow cytometer gives signals particle by particle.

Data set [9] concerns SW480. Put plainly: Annexin V/PI flow cytometry, cell death. It counts as cell-based, human. Particulars: 10 and 20 μM, 72 h; low GLI1 and NBS1. Here is the method: as §2
The subject of data set [10] is HCT8. Put plainly: Annexin V/PI flow cytometry, cell death. Particulars: 10 and 20 μM, 72 h; high GLI1 and NBS1. In kind it is cell-based, human. How it is done: as §2
Details of data set [11]: method as in PMID 29338454. Particulars: cited from earlier work.
The subject of data set [12] is MRN complex. Put plainly: Confocal microscopy, NBS1 signal and NBS1/MRE11 co-localization in HT29 cells. It counts as cell-based, human. How it is done: Cells were plated at a density of 50,000 cells/well in six-well plates on coverslips and allowed to attach overnight. Media was removed and cells were treated with/without GANT61 (20 μM) for 48 h. Coverslips were removed and placed in a humidity chamber for fixation by absolute methanol for 10 min at 4°C. Cells were permeabilized with acetone for 1 min at 4°C. After washing with PBS × 3, cells were incubated with the diluted primary antibody overnight at 4°C. Cells were subsequently washed x 3 and incubated with appropriate secondary antibody at room temperature in the dark for 1 h. After washing with PBS, cell nuclei were stained with DAPI at RT for 5–10 min. Confocal images were acquired on a Nikon A1 laser confocal system with a Nikon Eclipse Ti microscope and a 60X Plan Apo objective. Lasers used were 405 nm for blue, 488 nm for green, and 561 nm for red. NIS Elements AR 4.5000 software was used to acquire Z-stacks of each channel sequentially to avoid spectral cross talk. Each slice was captured at a 0.15 μm step. Primary antibodies used were γH2AX (Millipore 1:200), NBS1 (Novus 1:200), and MRE11 (Cell Signaling 1:200). The co-localization index for specific foci and fluorescent intensity were calculated by ImageJ.

Data set [13] has as its system NBS1 mRNA. Put plainly: NBS1 mRNA qRT-PCR in HT29 cells. In kind it is cell-based, human. To be noted: GANT61 as early as 24 h post treatment. Here is the method: Total RNA was extracted by Invitrogen™ PureLink™ RNA Mini Kit (Fisher scientific) and cDNAs were synthesized with the ThermoScript reverse transcriptional system. qRT-PCR was performed to assess the enrichment of the specific proteins along the NBS1 ORF using specific primer pairs: NBS1-primer-1-F:[…],NBS1-primer-1-R: […]. Human GAPDH cDNA was used as an internal control.

The target in data set [14] is T1, GLI1 (Homo sapiens, UniProt P08151).
T1 construct: HT29, which express GLI1 and have high basal NBS1 expression; endogenous in cells; host or cells: HT29
T1 sequence (P08151 1-1106): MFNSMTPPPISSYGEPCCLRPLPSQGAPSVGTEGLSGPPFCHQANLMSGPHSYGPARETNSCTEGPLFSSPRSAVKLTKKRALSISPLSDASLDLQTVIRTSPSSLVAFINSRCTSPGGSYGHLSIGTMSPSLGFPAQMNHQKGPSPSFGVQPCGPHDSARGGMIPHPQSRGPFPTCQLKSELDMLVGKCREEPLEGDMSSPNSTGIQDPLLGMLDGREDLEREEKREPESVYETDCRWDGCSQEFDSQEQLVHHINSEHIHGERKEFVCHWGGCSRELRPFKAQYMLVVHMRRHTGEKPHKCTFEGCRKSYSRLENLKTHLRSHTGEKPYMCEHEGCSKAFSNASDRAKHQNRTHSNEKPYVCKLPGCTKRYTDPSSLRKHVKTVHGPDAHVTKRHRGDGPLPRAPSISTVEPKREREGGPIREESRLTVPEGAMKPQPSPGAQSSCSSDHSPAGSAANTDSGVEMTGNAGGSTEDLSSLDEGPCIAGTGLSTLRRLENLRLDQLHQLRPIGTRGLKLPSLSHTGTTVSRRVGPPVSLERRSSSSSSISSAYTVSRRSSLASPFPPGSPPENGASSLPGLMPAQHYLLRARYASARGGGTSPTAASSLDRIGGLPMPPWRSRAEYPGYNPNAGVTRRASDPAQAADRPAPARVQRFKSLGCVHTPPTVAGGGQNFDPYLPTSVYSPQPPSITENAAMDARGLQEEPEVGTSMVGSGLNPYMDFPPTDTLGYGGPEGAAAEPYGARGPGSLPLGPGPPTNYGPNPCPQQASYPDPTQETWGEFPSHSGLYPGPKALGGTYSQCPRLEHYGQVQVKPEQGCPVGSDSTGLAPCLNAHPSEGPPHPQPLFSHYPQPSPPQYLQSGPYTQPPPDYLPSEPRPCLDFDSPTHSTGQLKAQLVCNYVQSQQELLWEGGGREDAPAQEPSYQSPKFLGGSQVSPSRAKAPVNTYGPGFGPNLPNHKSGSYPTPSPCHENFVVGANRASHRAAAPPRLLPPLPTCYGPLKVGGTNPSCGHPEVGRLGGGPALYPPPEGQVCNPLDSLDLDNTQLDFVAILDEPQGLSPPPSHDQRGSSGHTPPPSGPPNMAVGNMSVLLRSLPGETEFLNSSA
Put plainly: ChIP assay, GLI1 enrichment on the NBS1 promoter in HT29 cells. Particulars: HT29, 20 μM, 24 h. In kind it is cell-based. Here is the method: HT29 cells (2 × 10^6) were seeded in T75 flasks. After overnight attachment, cells were treated with/without GANT61 (20 μM) or SRI-38832 (20 μM) for 24 h. The cells were trypsinized, washed with 1x PBS and fixed with 1.1% formaldehyde for 10 min at RT. Glycine (0.125 M) was added to stop the reaction. Cells were washed with PBS × 1 and lysed using the ChIP kit according to the manufacturer's instructions (Abcam, Ab500). To fragment the DNA, the cells were sonicated (30 s with 30 s cooling repeatedly for 15 cycles) to obtain fragmented DNA from 100 bp to 1 kB which was verified by agarose gel migration. Lysates were subjected to immunoprecipitation overnight at 4°C with 10 μg of anti-human antibodies for GLI1 (Novus) and Histone H3 for positive control provided by the Abcam ChIP kit. The complex was subsequently incubated with Dynabeads protein G (Invitrogen) for 2 h, 4°C, on a rotating wheel. Beads were washed for 10 min at 4°C with low salt buffer (2x TE, 150 mM NaCl, 1% Triton X-100, 0.1% SDS). Beads were then washed for 10 min at 4°C with high salt buffer (2x TE, 500 mM NaCl, 1% Triton X-100, 0.1% SDS). Next, beads were washed for 10 min at 4° with LiCl buffer (1x TE, 1% NP-40, 0.25 M LiCl, 1% deoxycholate). […]

The test system of data set [15] is BRAF^V600E variant. Also on record: method as in PMID 26460303. Particulars: single agent, BRAF^V600E CRC patients; cited from earlier work.
[16] abbreviates: Homo sapiens, HT-29, Figure 5B-D, HT29 (high GLI1 expression), unit inferred, x-axis in μM.
Where [17] appears, read: Homo sapiens, HT-29, Figure 5E, comparison on HT29, unit inferred.
The mark [18] stands for this setting: Homo sapiens, HT-29, HT29, values in running text.

Data on four compounds can be found in paper PMC7058788, “GLI1 Inhibitor SRI-38832 Attenuates Chemotherapeutic Resistance by Downregulating NBS1 Transcription in BRAF^V600E Colorectal Cancer” (Frontiers in Oncology, 2020).

SMILES strings stand for the structures. Values joined by “and” are separate entries in the source; they are usually repeats but may differ in a detail not shown here. Identical values can stand only once.

In the case of `O=c1[nH]cc(F)c(=O)[nH]1` [5-FU, 5-fluorouracil], in data set [1], the “tail length relative to control” value is “about 3.5 time of control”. Moreover, the “induction of DNA damage (comet assay)” value in data set [2] is “did not”. In addition, the “sensitivity to 5-FU treatment (cell death)” value in data set [3] (10 and 20 μM, 72 h, high GLI1 and NBS1) is recorded as “resistant”; in data set [8], “highly sensitive”; in [9] it was “highly sensitive”; in data set [10] it was “resistant”. In addition, the “apoptotic cells after 5-FU treatment” value in data set [3] (shGLI1 HT29 cells) is “about 60%”; in data set [3] (siNBS1 HT29 cells) it was “Over 40%”. Moreover, the “dead cells after 5-FU treatment” value in data set [3] (vector HT29 cells (shGLI1 experiment)) is on record as 20%. Moreover, the “IC50 in HCT8 lower than in HT29” value in data set [4] (HCT8 vs HT29) was 5 fold. For the same compound, the concentration for half-maximal inhibition (IC50) (as a rule, the concentration that gives 50% inhibition) is 110 µM in data set [4], 528 µM in data set [5] (setting [16]), 525 µM in [5] (setting [17]) and 625 µM in data set [5] (setting [18]). In addition, in data set [6], the “expression of MRE11 and RAD50” value is on record as “did not result in any significant decreases”. Besides, the “total NBS1 protein level” value in [6] was “did not result in any significant decreases”. Besides, in data set [7], the overall response rate is 10–15%.
With `CN(C)c1ccccc1CN1CCCN(Cc2ccccc2N(C)C)C1c1ccncc1` [GANT61], in data set [11], the stability in vivo result was “hydrolyzed and loses biological activity in vivo”. In addition, in data set [2], the “tail length relative to control” value is listed as 2.5 time of control. For the same compound, the “cells rescued from apoptosis after GANT61 treatment by overexpression of any NBS1 vector” value in data set [3] (GANT61 20 μM, 72 h, NBS1, S343A or S343E overexpressing HT29) is ~ 25%. Also, in [3] (time-course, 48 h of treatment), the “apoptotic HT29 cells” value is approximately 40%. This compound also returned an IC50 in data set [5] (Figure 6A, HT29, unit inferred) of 22 µM. The IC50 in [5] (HT29, values in running text) was 21.9 µM and 21 µM. In addition, in data set [6], the “expression of MRE11 and RAD50” value is on record as “did not substantially alter”; the “total NBS1 protein level” value was “significantly decreased”; the γ-H2AX level result was “increased levels”. Further, the “co-localization of NBS1 and MRE11” value in data set [12] (HT29, 20 μM) is “significant decrease”. Besides, in [12] (HT29, 20 μM (24 h in text, 48 h in legend and method)), the “fluorescent signal of NBS1” value was “significantly reduced”. Besides, in data set [13], the “NBS1 mRNA level” value was “significantly decreased”. In addition, in data set [14], the “GLI1 binding enrichment on the NBS1 promoter” value is listed as “significantly reduced”.
Regarding `CCCS(=O)(=O)Nc1ccc(F)c(C(=O)c2c[nH]c3ncc(-c4ccc(Cl)cc4)cc23)c1F` [Vemurafenib], the response rate in data set [15] is listed as less than 5%.
As for `CS(=O)(=O)c1ccc(C(=O)Nc2ccc(Cl)c(-c3ccccn3)c2)c(Cl)c1` [Vismodegib], the IC50 in data set [4] was 80.5 µM; in [5] (setting [16]) it was 78.7 µM; in [5] (setting [17]) it was 81.4 µM; in data set [5] (setting [18]) it was approximately 80 µM. Also, the “IC50 higher than GANT61” value in data set [5] (HT29 cells) was determined as 4 fold.
